Patent publication US20080076137A1, “Bioanalytic Systems and Methods” (priority 2006, published 2008)

Tested on: mouse monoclonal antibodies (mAb) B8 against Btri
Test: ELISA: binding of anti-Btri mAb to Streptavidin-coated plates modified with biotinylated Btri glycoconjugates
Conditions: for fluorescence intensity I (binding capacity / maximal activity): corrected fluorescence 355nm/460nm, at loading of maximal binding
Description: Biot1-PNPA was used to prepare a polyacrylamide conjugate with blood group trisaccharide B (Btri), Galα1-3(Fucα1-2)Gal-(FIG. 1b, Glyc=Btri). The obtained end-labeled glycopolymer; biott-PHEAA-(Btri)x (molar fraction of Btri is 20%), was tested on ability to bind monoclonal antibodies (mAbs) against Btri in ELISA. Its antibody binding activity was compared to that of other biotinylated derivatives of Btri, two monomeric glycosides with Btri-biot linkers of different length and a glycopolymer, PHEAA-(Btri)x-bioty. The latter was synthesized by the routine approach (see FIG. 1a) and contained biotin residues randomly pendant to the polymer backbone as side groups.
Dependence of signal in ELISA from loading of Streptaviditn-coated plates with biotynylated glycoconjugates is shown in FIG. 8. As shown, binding of antibodies with Streptavidin-coated plates modified with biotinilated glycoconjugates. The Streptavidin-coated plates were consequentially incubated with the glycoconjugates and mouse mAb; for development of the bound mAbs an anti-mouse alkaline phosphatase conjugate in combination with a fluorescent substrate were used. The detected fluorescence intensity is plotted against added per well amounts of a) Btri and b) biotin related to the quantity of Streptavidin in well. According the manufacturer 125 pmole Streptavidin is contained per well, the working well surface was calculated to be 9·10^15 Å^2. […] The antibody binding to surface modified with the biotinylated monovalent Btri-glycosides was noticeably lower then in the cases with the multivalent ligands. For the glycoside with a long linker, Btri-O(CH2)3NHCO(CH2)5NH-biot, assay signal was detected only when coating concentration of the glycoside exceeded 20 ng/well (0.18 mole biotin/mole Streptavidin, and 22 pmole of Btri/well).
All chemicals and solvents apart from those mentioned below were purchased from Merck (Germany) and Fluka (Switzerland). The solvents were dried and purified by conventional procedures. Galα1-3(Fucα1-2)Galβ-O(CH2)3NH2, 4-Nitrophenylacrylate, PNPA and PHEAA-(Btri)x-biotiny were synthesized as described elsewhere. Mouse monoclonal antibodies (mAb) B8 against Btri were obtained from All-Russian Hematology Research Center, Moscow. Anti-mouse IgG+IgM (H+L)-alkaline phosphatase conjugate (Ig-AP) was the product of AP Biotech (UK). The organocobalt complexes used in this work were protected from light; their solutions were concentrated under vacuum with bath temperature kept below 35° C.
Enzyme-Linked Immunosorbent Assay.
Before test plates “Reacti-Bind Streptavidin Coated High Binding Capacity Black 96-Well Plate” (Pierce) were rinsed twice with PBS. Then serial tenfold dilutions of the biotinylated glycoconjugates contained Btri in PBS (0.02-200 μg ml^−1, […] per well) were added onto the plates for 1 h at 37° C. Plates were washed with PBS containing 0.1% Tween-20 (washing buffer). The same way plates were washed between all the next steps. After washing the plates were blocked with 3-% BSA in PBS. B8 mAbs (1:100 in PBS containing 0.3% BSA) were added and plates were incubated for 1 h at 37° C. After that plates were washed and incubated with Ig-AP (1:5000 in PBS containing 0.3% BSA) for 1 h at 37° C. […] After 30-min incubation at room temperature fluorescence intensity (355nm/460nm) was measured by “Victor^2” multilabel counter (PerkinElmer). The collected data were expressed in fluorescence units. Each assay was done in duplicate, blank reaction was performed by omitting mAb. The blank reading was subtracted from the final fluorescence to provide the corrected fluorescence intensity values.

Substance	interaction with mAb (in words) (ELISA on Streptavidin-coated plates)	fluorescence intensity I (binding capacity / maximal activity)	coating concentration above which assay signal was detected (0.18 mole biotin/mole Streptavidin, 22 pmole of Btri/well)	loading at which maximal binding of mAb / maximal activity was achieved (Streptavidin-coated plate, 125 pmole Streptavidin per well, 200 ng/well = 186 pmol of Btri, 220 ng/well = 220 pmole of Btri/well) [ng/well]	surface density of Btri at which binding with mAb reached maximal level (working well surface calculated to be 9·10^15 Å^2)
Btri-O(CH2)3NH-biot	exceptionally weak	~5×10^4 f.u.			
Btri-O(CH2)3NHCO(CH2)5NH-biot		~70×10^4 f.u.	exceeded 20 ng/well	220	about 15 residues/1000 Å^2
